“Also recorded” adds a separate entry of the source.
How the values were obtained:
[1] = system: human lung fibroblasts (WI-38) normal cells; assay: MTT cytotoxicity assay, normal WI-38 cells; format: cell-based; settings: WI-38, read-out: IC50 against WI-38
[2] = system: MCF-7 breast cancer cell line; assay: MTT antiproliferative assay, MCF-7; settings: for IC50: Homo sapiens, MCF7, read-out: IC50 against MCF-7; for SI (selectivity index), MCF-7: relative to normal WI-38 cells
[3] = system: HepG-2 liver cancer cell line; assay: MTT antiproliferative assay, HepG-2; settings: for IC50: Homo sapiens, HepG2, read-out: IC50 against HepG-2; for SI (selectivity index), HepG-2: relative to normal WI-38 cells
[4] = system: HCT-116 colorectal cancer cell line; assay: MTT antiproliferative assay, HCT-116; settings: for IC50: Homo sapiens, HCT-116, read-out: IC50 against HCT-116; for SI (selectivity index), HCT-116: relative to normal WI-38 cells
[5] = system: HepG-2 cells; assay: Cell cycle analysis; format: cell-based, human; settings: 24 h
[6] = system: HepG-2 cells; assay: Annexin V-FITC/PI apoptosis assay; format: cell-based, human
[7] = system: Bax; assay: Bax level, ELISA in HepG-2; format: cell-based, human; settings: for Bax: HepG-2, 24 h, 5a at 3.42 μM; for Bax/Bcl-2: ratio of the two levels, HepG-2
[8] = system: Bcl-2; assay: Bcl-2 level, ELISA in HepG-2; format: cell-based, human; settings: for Bcl-2: HepG-2, 24 h, 5a at 3.42 μM
[9] = system: p53; assay: p53 level, ELISA in HepG-2; format: cell-based, human
[10] = system: caspase-3; assay: Caspase-3 level, ELISA in HepG-2; format: cell-based, human; settings: for Casp-3: HepG-2, 24 h, 5a at 3.42 μM
[11] = molecular target: c-Met kinase (Homo sapiens, UniProt P08581); assay: c-Met kinase inhibitory assay
[12] = HepG-2, IC50 concentration (3.42 μM)
[13] = with respect to untreated HepG-2 cells

Sequence of c-Met kinase (P08581 25-1390): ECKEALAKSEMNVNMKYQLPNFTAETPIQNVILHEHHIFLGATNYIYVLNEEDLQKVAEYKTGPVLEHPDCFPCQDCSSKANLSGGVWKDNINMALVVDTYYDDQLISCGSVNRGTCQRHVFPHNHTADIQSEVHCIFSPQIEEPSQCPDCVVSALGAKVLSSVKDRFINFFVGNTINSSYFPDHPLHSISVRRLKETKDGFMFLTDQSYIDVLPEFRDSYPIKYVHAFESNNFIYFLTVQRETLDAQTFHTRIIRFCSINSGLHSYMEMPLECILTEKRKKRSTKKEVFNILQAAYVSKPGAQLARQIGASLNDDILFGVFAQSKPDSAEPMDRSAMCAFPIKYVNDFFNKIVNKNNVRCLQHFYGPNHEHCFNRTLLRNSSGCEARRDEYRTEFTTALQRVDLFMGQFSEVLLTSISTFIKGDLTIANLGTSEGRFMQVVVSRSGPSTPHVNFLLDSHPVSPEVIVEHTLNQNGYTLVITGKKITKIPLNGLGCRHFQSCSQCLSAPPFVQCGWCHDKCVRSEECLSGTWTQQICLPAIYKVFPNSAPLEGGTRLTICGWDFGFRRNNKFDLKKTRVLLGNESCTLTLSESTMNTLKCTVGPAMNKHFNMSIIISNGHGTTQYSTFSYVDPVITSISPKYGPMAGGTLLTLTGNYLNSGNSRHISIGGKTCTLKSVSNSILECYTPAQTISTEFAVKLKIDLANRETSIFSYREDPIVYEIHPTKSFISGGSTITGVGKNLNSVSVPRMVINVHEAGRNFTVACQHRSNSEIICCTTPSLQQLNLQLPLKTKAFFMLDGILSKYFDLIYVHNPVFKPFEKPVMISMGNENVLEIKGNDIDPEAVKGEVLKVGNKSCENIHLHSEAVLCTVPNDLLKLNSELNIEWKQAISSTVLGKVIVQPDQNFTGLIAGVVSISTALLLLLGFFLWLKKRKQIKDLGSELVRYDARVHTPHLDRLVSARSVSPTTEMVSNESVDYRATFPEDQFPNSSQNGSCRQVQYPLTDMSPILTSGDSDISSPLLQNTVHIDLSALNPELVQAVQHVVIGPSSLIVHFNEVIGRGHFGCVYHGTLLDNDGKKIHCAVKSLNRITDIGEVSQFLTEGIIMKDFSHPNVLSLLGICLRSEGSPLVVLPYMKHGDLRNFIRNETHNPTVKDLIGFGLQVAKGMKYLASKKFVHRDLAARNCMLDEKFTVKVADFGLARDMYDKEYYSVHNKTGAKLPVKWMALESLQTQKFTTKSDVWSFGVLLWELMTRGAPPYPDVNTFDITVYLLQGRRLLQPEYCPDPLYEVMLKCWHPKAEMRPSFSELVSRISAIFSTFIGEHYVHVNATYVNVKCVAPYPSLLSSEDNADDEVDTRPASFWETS

O=c1[nH]cc(F)c(=O)[nH]1 [5-Fluorouracil, reference compound]
IC50 [1]: 79.7 ± 0.64 µM
IC50 [2]: 3.58 ± 0.45 µM
SI (selectivity index), MCF-7 [2]: 22.26
IC50 [3]: 2.87 ± 0.15 µM
SI (selectivity index), HepG-2 [3]: 27.77
IC50 [4]: 5.26 ± 0.31 µM
SI (selectivity index), HCT-116 [4]: 15.15

Cc1ccc(S(=O)(=O)n2nc(C)c3c(-c4ccccc4)c(C#N)c(=S)[nH]c32)cc1 [Compound 5a, 3-Methyl-4-phenyl-6-thioxo-1-tosyl-6,7-dihydro-1H-pyrazolo[3,4-b]pyridine-5-carbonitrile]
IC50 [1]: 80.46 ± 0.33 µM
cell cycle arrest phase ([5]; HepG-2, 3.42 μM): arrested the cell cycle at the G1/S phase; also recorded: cell cycle arrest at the G1/S phase
percentage of cells in G0–G1 phase [5, 12]: 51.93%
percentage of cells in G2/M phase [5, 12]: 3.89%
percentage of cells in S phase [5, 12]: 44.18%
Apoptosis Early ([6]; HepG-2, 3.42 μM, 24 h): 24.63%
Apoptosis Late ([6]; HepG-2, 3.42 μM, 24 h): 16.28%
Necrosis ([6]; HepG-2, 3.42 μM, 24 h): 6.24%
fold increase of early apoptotic cells [6, 13]: about 63 folds
fold increase of late apoptotic cells [6, 13]: ~116 folds
Bax [7]: 211.40 ± 0.25 pg/mL
Bax/Bcl-2 [7]: 101.14
fold increase of Bax level ([7]; vs untreated HepG-2 cells): ~5.4 folds
fold increase of Bax/Bcl-2 ratio ([7]; vs untreated HepG-2 cells): 21 times
Bcl-2 [8]: 2.09 ± 0.15 ng/mL
fold reduction of Bcl-2 level ([8]; vs untreated HepG-2 cells): ~3.9 folds
p53 ([9]; HepG-2, 24 h, 5a at 3.42 μM): 825.22 ± 0.40 pg/mL
fold upregulation of p53 ([9]; vs untreated HepG-2 cells): 6.9 folds
Casp-3 [10]: 42.60 ± 0.10 ng/mL
fold upregulation of caspase-3 ([10]; vs untreated HepG-2 cells): 23.8 folds
IC50 [2]: 5.25 ± 1.04 µM
SI (selectivity index), MCF-7 [2]: 15.32
IC50 [3]: 3.42 ± 1.31 µM
fold more potent than erlotinib against HepG-2 ([3]; ratio of IC50 values): approximately 2.4 fold
SI (selectivity index), HepG-2 [3]: 23.52
IC50 [4]: 6.27 ± 1.15 µM
SI (selectivity index), HCT-116 [4]: 12.83
IC50 [11]: 0.00427 ± 0.00031 µM

Cc1ccc(S(=O)(=O)n2nc(C)c3c(-c4ccc(Cl)cc4)c(C#N)c(=S)[nH]c32)cc1 [Compound 5b, 4-(4-Chlorophenyl)-3-methyl-6-thioxo-1-tosyl-6,7-dihydro-1H-pyrazolo[3,4-b]pyridine-5-carbonitrile]
IC50 [1]: 85.1 ± 0.32 µM
IC50 [2]: 6.82 ± 1.1 µM
SI (selectivity index), MCF-7 [2]: 12.47
IC50 [3]: 3.56 ± 1.5 µM
fold more potent than erlotinib against HepG-2 ([3]; ratio of IC50 values): approximately 2.4 fold
SI (selectivity index), HepG-2 [3]: 23.90
IC50 [4]: 9.21 ± 0.02 µM
SI (selectivity index), HCT-116 [4]: 9.23
IC50 [11]: 0.00795 ± 0.00017 µM

Cc1ccc(S(=O)(=O)n2nc(C)c3c(-c4ccccc4)c4c(N)c(C(N)=O)sc4nc32)cc1 [Compound 8a, 5-Amino-3-methyl-4-phenyl-1-tosyl-1H-pyrazolo[3,4-b]thieno[3,2-e]pyridine-6-carboxamide]
IC50 [2]: 43.02 ± 0.24 µM
IC50 [3]: 30.58 ± 0.01 µM
IC50 [4]: 47.38 ± 0.11 µM

CC(=O)c1sc2nc3c(c(C)nn3S(=O)(=O)c3ccc(C)cc3)c(-c3ccccc3)c2c1N [Compound 8b, 1-(5-Amino-3-methyl-4-phenyl-1-tosyl-1H-pyrazolo[3,4-b]thieno[3,2-e]pyridin-6-yl)ethan-1-one]
IC50 [2]: 60.23 ± 0.17 µM
IC50 [3]: 52.1 ± 0.71 µM
IC50 [4]: 67.84 ± 0.02 µM

Cc1ccc(S(=O)(=O)n2nc(C)c3c(-c4ccc(Cl)cc4)c4c(N)c(C#N)sc4nc32)cc1 [Compound 8c, 5-Amino-4-(4-chlorophenyl)-3-methyl-1-tosyl-1H-pyrazolo[3,4-b]thieno[3,2-e]pyridine-6-carbonitrile]
IC50 [2]: 36.25 ± 0.13 µM
IC50 [3]: 25.4 ± 0.5 µM
IC50 [4]: 41.77 ± 0.4 µM

CCOC(=O)c1sc2nc3c(c(C)nn3S(=O)(=O)c3ccc(C)cc3)c(-c3ccc(Cl)cc3)c2c1N [Compound 8d, Ethyl 5-amino-4-(4-chlorophenyl)-3-methyl-1-tosyl-1H-pyrazolo[3,4-b]thieno[3,2-e]pyridine-6-carboxylate]
IC50 [2]: 32.14 ± 0.19 µM
IC50 [3]: 23.12 ± 0.08 µM
IC50 [4]: 38.11 ± 0.3 µM

CC(=O)c1sc2nc3c(c(C)nn3S(=O)(=O)c3ccc(C)cc3)c(-c3ccc(Cl)cc3)c2c1N [Compound 8e, 1-(5-Amino-4-(4-chlorophenyl)-3-methyl-1-tosyl-1H-pyrazolo[3,4-b]thieno[3,2-e]pyridin-6-yl)ethan-1-one]
IC50 [2]: 14.2 ± 0.33 µM
IC50 [3]: 12.31 ± 0.1 µM
IC50 [4]: 18.2 ± 0.62 µM

Cc1ccc(S(=O)(=O)n2nc(C)c3c(-c4ccc(Cl)cc4)c4c(N)c(C(=O)O)sc4nc32)cc1 [Compound 8f, 5-Amino-4-(4-chlorophenyl)-3-methyl-1-tosyl-1H-pyrazolo[3,4-b]thieno[3,2-e]pyridine-6-carboxylic acid]
IC50 [2]: 19.3 ± 0.45 µM
IC50 [3]: 15.4 ± 0.3 µM
IC50 [4]: 18.86 ± 0.12 µM

Cc1ccc(S(=O)(=O)n2nc(C)c3sc(=S)n(C)c32)cc1 [Compound 10a, 3,6-Dimethyl-1-tosyl-1,6-dihydro-5H-pyrazolo[3,4-d]thiazole-5-thione]
IC50 [2]: 13.7 ± 0.7 µM
IC50 [3]: 10.2 ± 0.15 µM
IC50 [4]: 17.2 ± 0.37 µM

Cc1ccc(S(=O)(=O)n2nc(C)c3sc(=S)n(-c4ccccc4)c32)cc1 [Compound 10b, 3-Methyl-6-phenyl-1-tosyl-1H-pyrazolo[3,4-d]thiazole-5(6H)-thione]
IC50 [1]: 85.41 ± 0.51 µM
IC50 [2]: 8.13 ± 0.4 µM
SI (selectivity index), MCF-7 [2]: 10.50
IC50 [3]: 6.75 ± 0.62 µM
fold less potent than 5-FU against HepG-2 ([3]; ratio of IC50 values): 2.3 fold
SI (selectivity index), HepG-2 [3]: 12.65
IC50 [4]: 9.36 ± 0.45 µM
SI (selectivity index), HCT-116 [4]: 9.12

C#Cc1cccc(Nc2ncnc3cc(OCCOC)c(OCCOC)cc23)c1 [Erlotinib, reference compound]
IC50 [1]: 70 ± 1.08 µM
Bax [7]: 200.20 ± 0.25 pg/mL
Bax/Bcl-2 [7]: 118.84
Bcl-2 [8]: 1.69 ± 0.10 ng/mL
Casp-3 [10]: 58.41 ± 0.12 ng/mL
